Data set [1] relates to octopamine receptors. Kind of data set: Irreversible activation of adenylate cyclase after photolysis of firefly light organ membranes. Particulars: photolyzed, washed. The format is biochemical. The text has this:
When exposed to ultraviolet light in these wavelengths, the N3 azido group on the para-position is photolyzed to yield free N2 and a […] covalently with a number of protein sites, including areas with double bonds, amino groups and carboxylic acids. If compound IV is occupying an octopamine receptor at the time of photolysis, then the ligand will bind to a site on or near the receptor protein. […] To determine this, a series of photolysis experiments were performed in which firefly light organ membranes were preincubated with or without compound IV and then photolyzed. Next, the membranes were extensively washed to remove all free ligand and any ligand that was not covalently bound. Following this, adenylate cyclase activity was assayed. […] Presumably, the excess octopamine displaced compound IV so that, when the membranes were later photolyzed, octopamine (and not compound IV) was occupying the receptor. Subsequently, during washing, the octopamine was removed so that the receptor returned to its unstimulated state.

The subject of data set [2] is octopamine-sensitive adenylate cyclase. The experiment in a line: Activation of adenylate cyclase in firefly light organ membrane (broken cell) preparations. Particulars: for Ka (concentration necessary for half-maximal activation of cyclase activity): firefly light organ membranes, reversible conditions. The format is biochemical, Photinus pyralis. The method, then:
The question of whether a given azido-substituted compound within the scope of the invention is an octopamine agonist can be readily answered by measuring adenylate cyclase activity of the octopamine-sensitive adenylate cyclase present in broken cell preparations of the firefly light organ. […] Specimens of Photinus pyralis are prepared by opening their tail sections, cleaning them, removing the light organs, and homogenizing the cyclase-containing fraction. Adenylate cyclase activity is measured in appropriate buffer-containing ATP, cofactors, and the compound to be tested. Normally, the solution mixture contains a phosphodiesterase inhibitor such as theophylline, and the assay is designed to provide linear measurements with respect to time and enzyme concentration. If necessary, the compounds to be tested are initially solubilized and appropriate solvent controls are run in parallel. The enzyme reaction is initiated by addition of ATP, stopped by heating, and centrifuged. Cyclic AMP can be measured by any test which indicates the presence thereof, preferably by the protein binding assay of Brown et al. (Advances in Cyclic Nucleotide Research 2:25-40 (1972)). The determination of the constant Ka, which is the concentration of the azido-substituted agonist necessary for half-maximal activation of cyclase activity, is carried out by measuring cyclase activity in the preparation, and plotting the activity (above control activity) versus the semilogarithm of the particular agonist concentration. This is done for a series of increasing concentrations until maximal activity (Vmax) is reached. Ka^(Azido) is then calculated from the graph as the agonist concentration required for one-half of Vmax. Ka^(Azido) is compared with the constant (Ka^oct) determined in an analogous way using ±p-octopamine as the agonist. The ratio Ka^oct /ka^(Azido) is then an indication of whether a particular azido-substituted agonist (Azido) is more (ratio greater than 1) or less (ratio smaller than 1) active than (±)-p-octopamine (oct). […]

The subject of data set [3] is octopamine receptors. The experiment in a line: Irreversible (UV) binding of compound VIII to firefly light organ membranes and displacement. Particulars: for displacement of irreversible VIII binding (in words): other experiments, nonoctopaminergic compounds. The method, then:
In these experiments, membranes were preincubated with the probe for under various conditions and then the mixture was photolyzed in quartz microcuvettes using a UV-C germicidal lamp. […] To determine whether the binding was specific, various displacing agents were added during the preincubation with tritiated IV (VIII), and the mixture then photolyzed.

Data set [4] concerns Light Organ Adenylate Cyclase. The experiment in a line: Antagonist inhibition of agonist-stimulated light organ adenylate cyclase. The class given is biochemical, firefly. Particulars: for inhibition of compound IV stimulation of adenylate cyclase (in words): stimulation by compound IV; for pKi: read-out: Calculated Ki.
For data set [5], the system named is intact firefly light organ. Kind of data set: Light emission after injection into isolated firefly tails. The class given is in vivo. The method, then: In the second verification procedure, a bioassay was conducted which measured the effect of tritiated VIII on eliciting light emission when injected into isolated firefly tails.
Data set [6] relates to octopamine receptors. Kind of data set: Autoradiography of intact isolated firefly light organs labeled with VIII. The protocol:
Because compound VIII binds irreversibly, it should have potential as an anatomic probe to […] localize octopamine receptors at the light microscopic level. To determine if this is feasible, some preliminary studies were conducted using intact isolated firefly light organs. The lanterns were first preincubated with VIII in dim light and then exposed either to no light or to intense UV. Following this step, the lanterns were extensively washed, then slide mounted, dehydrated, and exposed to tritium-sensitive X-ray film. […] In the absence of UV light, there was no labeling. Localization of octopamine receptors, particularly in the nervous system, should aid in an understanding of how octopamine exerts its behavioral effects in insects.

Data set [7] concerns octopamine receptor protein(s). The experiment in a line: SDS-polyacrylamide gel autoradiogram of light organ membrane proteins photolabeled with VIII. The format is binding, firefly.
Data set [8] relates to octopamine receptor. Kind of data set: Reversible binding of compound VIII to light organ membranes (filtration). On the set-up: species or system firefly. From the text: The low affinity of octopamine for its receptor (Ka =30 micromolar) results in a half-time of dissociation of considerably less than 0.1 second. This precludes the use of labeled octopamine as a receptor ligand since the time required for the separation of free from bound ligand during a filtration assay is several seconds. […] In other words, following washing, enough ligand will still be on the receptor to allow estimation of the receptor's binding constant for compound IV. (Because there will still be significant loss of label during filtration, one cannot use this type of assay to estimate total receptor number).

The test system of another data set is Manduca larvae. Kind of data set: Antifeeding activity, Manduca larvae on sprayed tomato leaves. Particulars: percentage of leaf area remaining after 72 hours, dim light. The class given is in vivo.
Data set [9] deals with octopamine receptor. The experiment in a line: In vitro octopamine agonist activity in Manduca. The class given is biochemical. From the text:
(§1) However, use of formamidines as pest controlling agents gives rise to certain problems, including the fact that the aniline breakdown products are carcinogenic. Moreover, a further problem is that the range of activity of these compounds is limited to a relatively few insect species. Matsumura, F., et al.. Environ. Health Perspect. 14: 71-82 (1976). […] Consistent with this in vitro activity, the formamidines are toxic in Manduca but not in the cockroach.

Data set [10] has as its system octopamine receptor. The experiment in a line: In vitro octopamine agonist activity in the cockroach. The format is biochemical.
Source text: as §1

The subject of a further data set is adenylate cyclase. Particulars: cited from earlier work.

Consider 13 molecules from patent US4892871A, “Azido-substituted octopamine agonists and the use thereof to control invertebrate pests” (The General Hospital Corporation, priority 1988, dated 1990).

Molecules are shown by their SMILES. pKd, pKi: −log10 of the molar value. Like-named read-outs stand apart in the source and are kept apart here.

Turning to `NCC(O)c1ccc(O)cc1` (centres unmarked) [octopamine], in the data set with octopamine receptors [1], the “irreversible activation after preincubation with compound alone” value is on record as “failed to cause any irreversible activation”. Also, the “Ka (concentration necessary for half-maximal activation of cyclase activity)” value in data set [2] was determined as 30 µM.
Take `NCCc1c[nH]c2ccc(O)cc12` [serotonin]: in the data set with octopamine receptors [3], the “displacement of irreversible VIII binding (in words)” value (from here on “displacement”) was “not displaced”.
Regarding `CC(C)NCC(O)COc1cccc2ccccc12` (centres unmarked) [Propranolol, propranolol], the “inhibition of compound IV stimulation of adenylate cyclase (in words)” value (“inhibition” below) in [4] is “less potent”.
`[3H]c1c(CC)c(N=C2NCCN2)c(CC)c([3H])c1N=[N+]=[N-]` [compound VIII, 2-(4-azido-2,6-diethyl-3,5-ditritiophenyl)imino-2-imidazoline]: the “increase in amount of label permanently bound on exposure to UV light” value in the data set on octopamine receptors [3] (photolyzed vs no UV) was determined as 14 fold. Also, the “light response compared with genuine unlabeled compound” value in data set [5] (injection of 0.5 nmoles into isolated firefly tails) is listed as “identical”. Moreover, the “labeling of the lantern” value is “no labeling” in the data set on octopamine receptors [6] (absence of UV light) and “marked labeling” with octopamine receptors [6] (exposed to intense UV). The “proteins labeled on gel” value is “no proteins were labeled” in [7] (absence of UV radiation (lane C)) and “Four major labeled peaks” in data set [7] (photolyzed with UV (lane A)). Also, the “Ka (concentration necessary for half-maximal activation of cyclase activity)” value in data set [2] is reported as “about 0.5 micromolar”. Besides, in data set [2] (light organ membranes), the “adenylate cyclase activity profile compared with unlabeled IV” value is given as “virtually identical”. In the data set on octopamine receptor [8] (specific binding = absence minus presence of 1000-fold excess mianserin), the “concentration at which specific binding saturates” value is “about 2 micromolar”. For the same molecule, the pKd at octopamine receptor [8] (specific binding, light organ membranes, read-out: concentration at which 50% binding occurs) was about 6.10.
Turning to `NCCc1ccc(O)c(O)c1` [dopamine], the “displacement” value with octopamine receptors [3] is on record as “not displaced”.
For `CCc1cc(N=[N+]=[N-])cc(CC)c1N=C1NCCN1` [compound IV, (4-azido-2,6-diethylphenyl)imino-2-imidazoline], in the data set with Manduca larvae, the “potency relative to octopamine in inhibiting feeding” value is “about 10 fold”. Also, the “potency relative to octopamine in stimulating light emission” value in data set [5] (injected into isolated firefly tails) was “about 15 fold”. In addition, in the data set on octopamine receptors [1] (membranes preincubated with compound), the “increase in adenylate cyclase activity after prior photolysis and washing” value is on record as 3 fold.
Turning to `NC[C@H](O)c1ccc(O)c(O)c1` [norepinephrine], the “displacement” value in the data set on octopamine receptors [3] was “not displaced”.
`Cc1cc(Cl)ccc1N=CN` [DDCDM, didemethylchlordimeform]: in the data set with octopamine receptor [9], the agonist character entry is reported as “full agonist” and the “potency relative to octopamine” value is on record as 20 fold. Moreover, in the data set on octopamine receptor [10], the agonist character result is “very weak and partial agonist”.
Take `NCCc1c[nH]cn1` [histamine]: in the data set with octopamine receptors [3], the “displacement” value is “not displaced”.
Regarding `CNC=Nc1ccc(Cl)cc1C` [DCDM, N-demethylchlordimeform], in the data set on adenylate cyclase, the “agonist character in adenylate cyclase stimulation” value is recorded as “partial agonist” and the “potency relative to octopamine in adenylate cyclase stimulation” value was “about six”.
In the case of `CN1CCC(=C2c3ccccc3C=Cc3ccccc32)CC1` [Cyproheptadine, cyproheptadine], the “inhibition” value in data set [4] is given as “inhibited”.
With `CN1CCN2c3ccccc3Cc3ccccc3C2C1` (centres unmarked) [Mianserin, mianserin], the “inhibition” value in data set [4] was “inhibited”. In addition, the “effect on VIII labeling of the protein peak at MW 74,000” value in data set [7] (excess antagonist present during photolysis) was “completely blocked”.
In the case of `Cc1ccc(N(CC2=NCCN2)c2cccc(O)c2)cc1` [Phentolamine, phentolamine], the pKi (commonly the negative decadic logarithm of the Ki, by convention in mol/L) in data set [4] (inhibiting stimulation by DCDM (a formamidine)) is 4.74; in data set [4] (inhibiting stimulation by compound IV) it was 4.70; in [4] (inhibiting stimulation by octopamine (OCT)) it was 4.34. The “inhibition” value in [4] was “inhibited”.
